Laboratory results from paper PMC12371865 (2025).

Tests used:
[1] = test system: hTel (hybrid-1 quadruplex, K+ stabilized) (DNA, G4) TTGGGTTAGGGTTAGGGTTAGGGA; test: luminescence titration at 630 nm, Bard fit; conditions: K+ (50 mM potassium phosphate), pH 7, per base
[2] = test system: polyG (polyguanylic acid) (RNA, polymer) G; test: luminescence quenching and UV-vis hypochromism titration; conditions: qualitative; enantiomer not stated
[3] = test system: d(G5C5)2 (DNA, duplex) GGGGGCCCCC; test: luminescence titration at 630 nm, Bard fit; conditions: K+ (50 mM potassium phosphate), pH 7, per base

N#Cc1cccc2nc3c4cccnc4c4ncccc4c3nc12.[Ru+2].c1cnc2c(ccc3nccnc32)n1.c1cnc2c(ccc3nccnc32)n1 was tested, and the K b ([1]; binding-site size 1.4(±0.1)) was 5.7(±0.2) × 10^5 M^-1, the K b ([1]; binding-site size 2.7(±0.1)) was 2.7(±0.2) × 10^5 M^-1 and the binding [2] was “yes”. The K b ([3]; binding-site size 2.1(±0.1)) was 7.8(±0.8) × 10^5 M^-1 and the K b ([3]; binding-site size 2.2(±0.1)) was 1.3(±0.2) × 10^6 M^-1.
